US10479780B2, “Aminopyrazole derivatives” (Chugai Seiyaku Kabushiki Kaisha, priority 2015, dated 2019)

Key:
Assay type in all cases: biochemical
human Yes1 enzyme = target: T1, human Yes1 enzyme (Homo sapiens, UniProt P07947); test: Yes1 enzyme inhibitory activity (time-resolved fluorometry, biotinylated peptide phosphorylation); conditions: biotinylated peptide phosphorylation, read-out: YES_IC50
T1 construct: made in house
Outline: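 Inhibition was expressed against a compound-free control to give IC50, using TR-FRET read-out (Eu-cryptate anti-pTyr antibody, streptavidin-XL665).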

human Src enzyme = target: T2, human Src enzyme (Homo sapiens, UniProt P12931); test: Src enzyme inhibitory activity (time-resolved fluorometry, biotinylated peptide phosphorylation); conditions: biotinylated peptide phosphorylation, read-out: SRC_IC50
T2 construct: purchased Carna Biosciences, Inc. 08-173
T2 sequence (P12931 whole entry): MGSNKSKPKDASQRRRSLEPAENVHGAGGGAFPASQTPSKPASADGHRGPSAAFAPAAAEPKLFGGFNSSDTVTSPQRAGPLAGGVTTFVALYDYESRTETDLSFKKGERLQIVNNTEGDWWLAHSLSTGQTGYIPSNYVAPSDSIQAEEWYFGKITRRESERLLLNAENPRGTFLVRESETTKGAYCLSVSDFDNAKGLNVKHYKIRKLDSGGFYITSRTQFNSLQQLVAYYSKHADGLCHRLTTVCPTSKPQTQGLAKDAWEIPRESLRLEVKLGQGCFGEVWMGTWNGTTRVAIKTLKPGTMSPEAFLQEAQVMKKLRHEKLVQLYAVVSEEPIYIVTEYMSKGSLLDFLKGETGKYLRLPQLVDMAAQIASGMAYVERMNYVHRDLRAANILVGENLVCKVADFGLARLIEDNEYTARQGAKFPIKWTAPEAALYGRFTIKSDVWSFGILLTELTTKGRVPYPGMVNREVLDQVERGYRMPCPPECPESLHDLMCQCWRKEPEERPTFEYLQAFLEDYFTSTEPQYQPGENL
Outline: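 Compounds were tested for blocking tyrosine phosphorylation of a biotinylated peptide substrate by recombinant human Src. Phosphorylated product was quantified by time-resolved fluorometry using europium cryptate and XL665 conjugates, and IC50 was calculated against the compound-free control.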

human Lck enzyme = target: T3, human Lck enzyme (Homo sapiens, UniProt P06239); test: Lck enzyme inhibitory activity (time-resolved fluorometry, biotinylated peptide phosphorylation); conditions: biotinylated peptide phosphorylation, read-out: LCK_IC50
T3 construct: purchased Carna Biosciences, Inc. 08-170
T3 sequence (P06239 whole entry): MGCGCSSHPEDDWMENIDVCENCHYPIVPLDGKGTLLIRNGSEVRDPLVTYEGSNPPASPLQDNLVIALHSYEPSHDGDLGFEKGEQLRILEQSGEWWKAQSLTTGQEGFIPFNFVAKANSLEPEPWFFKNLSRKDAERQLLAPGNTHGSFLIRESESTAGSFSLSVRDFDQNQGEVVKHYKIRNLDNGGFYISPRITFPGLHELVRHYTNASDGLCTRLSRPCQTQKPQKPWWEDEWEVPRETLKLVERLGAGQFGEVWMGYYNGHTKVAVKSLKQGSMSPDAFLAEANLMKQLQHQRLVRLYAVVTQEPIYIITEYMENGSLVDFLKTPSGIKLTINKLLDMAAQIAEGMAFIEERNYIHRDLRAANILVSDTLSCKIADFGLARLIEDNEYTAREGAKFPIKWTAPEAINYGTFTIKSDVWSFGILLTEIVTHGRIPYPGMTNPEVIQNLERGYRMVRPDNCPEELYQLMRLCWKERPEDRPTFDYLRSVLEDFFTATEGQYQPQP
Outline: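 Readout pairs a europium cryptate-labelled anti-phosphotyrosine antibody with XL665-streptavidin, measured by time-resolved fluorescence. IC50 derived from percent inhibition against untreated controls.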

T1 sequence (P07947 whole entry): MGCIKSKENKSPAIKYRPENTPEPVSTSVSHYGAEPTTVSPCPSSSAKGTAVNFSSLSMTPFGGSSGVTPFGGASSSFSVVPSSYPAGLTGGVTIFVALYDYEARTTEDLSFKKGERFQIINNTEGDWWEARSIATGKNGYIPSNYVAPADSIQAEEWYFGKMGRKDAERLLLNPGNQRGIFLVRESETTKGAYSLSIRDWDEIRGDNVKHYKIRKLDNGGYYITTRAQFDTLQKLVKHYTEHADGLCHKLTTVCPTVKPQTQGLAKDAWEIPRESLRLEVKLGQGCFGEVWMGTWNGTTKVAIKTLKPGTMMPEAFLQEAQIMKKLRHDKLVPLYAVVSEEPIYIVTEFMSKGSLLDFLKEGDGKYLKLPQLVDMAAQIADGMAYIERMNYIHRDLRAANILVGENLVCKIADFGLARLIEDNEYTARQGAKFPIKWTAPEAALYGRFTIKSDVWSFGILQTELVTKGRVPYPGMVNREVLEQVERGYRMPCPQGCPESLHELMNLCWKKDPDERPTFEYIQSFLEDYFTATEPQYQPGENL

Row | Structure (SMILES) | IC50 (human Yes1 enzyme) [nM] | IC50 (human Src enzyme) [nM] | IC50 (human Lck enzyme) [nM]
1 | Cc1cc(Oc2ccccc2F)ccc1-n1ncc(C(=O)c2cc3cc(OC(F)F)c(N4CCN(S(C)(=O)=O)CC4)cc3[nH]2)c1N [Example 4-23-002, [5-amino-1-[4-(2-fluorophenoxy)-2-methylphenyl]pyrazol-4-yl]-[5-(difluoromethoxy)-6-(4-methylsulfonylpiperazin-1-yl)-1H-indol-2-yl]methanone] | 1.6 | 44 | 20
2 | Cc1cc(Oc2ccccc2F)cc(F)c1-n1ncc(C(=O)c2cc3cc(OC(F)F)c(N4CCN(S(C)(=O)=O)CC4)cc3[nH]2)c1N [Example 4-23-003, [5-amino-1-[2-fluoro-4-(2-fluorophenoxy)-6-methylphenyl]pyrazol-4-yl]-[5-(difluoromethoxy)-6-(4-methylsulfonylpiperazin-1-yl)-1H-indol-2-yl]methanone] | 10 | 62 | 21
3 | Cc1cc(Oc2ccccc2F)ncc1-n1ncc(C(=O)c2cc3cc(OC(F)F)c(N4CCN(S(C)(=O)=O)CC4)cc3[nH]2)c1N [Example 4-23-004, [5-amino-1-[6-(2-fluorophenoxy)-4-methylpyridin-3-yl]pyrazol-4-yl]-[5-(difluoromethoxy)-6-(4-methylsulfonylpiperazin-1-yl)-1H-indol-2-yl]methanone] | 5.5 | 48 | 18
4 | Cc1cc(Oc2ccccc2F)ccc1-n1ncc(C(=O)c2cc3cc(OCC(F)F)c(N4CCN(S(C)(=O)=O)CC4)cc3[nH]2)c1N [Example 4-23-005, [5-amino-1-[4-(2-fluorophenoxy)-2-methylphenyl]pyrazol-4-yl]-[5-(2,2-difluoroethoxy)-6-(4-methylsulfonylpiperazin-1-yl)-1H-indol-2-yl]methanone] | 1.7 | 16 | 8.2
5 | Cc1cc(Oc2ccccc2F)cc(F)c1-n1ncc(C(=O)c2cc3cc(OCC(F)F)c(N4CCN(S(C)(=O)=O)CC4)cc3[nH]2)c1N [Example 4-23-006, [5-amino-1-[2-fluoro-4-(2-fluorophenoxy)-6-methylphenyl]pyrazol-4-yl]-[5-(2,2-difluoroethoxy)-6-(4-methylsulfonylpiperazin-1-yl)-1H-indol-2-yl]methanone] | 2.7 | 22 | 13
6 | Cc1cc(Oc2ccccc2F)ccc1-n1ncc(C(=O)c2cc3cc(OC(F)F)c(NC4COC4)cc3[nH]2)c1N [Example 4-23-009, [5-amino-1-[4-(2-fluorophenoxy)-2-methylphenyl]pyrazol-4-yl]-[5-(difluoromethoxy)-6-(oxetan-3-ylamino)-1H-indol-2-yl]methanone] | 3.2 | 22 | 8.9
7 | Cc1cc(Oc2ccccc2F)ccc1-n1ncc(C(=O)c2cc3cc(OC(F)F)c(NC4CCN(S(C)(=O)=O)CC4)cc3[nH]2)c1N [Example 4-23-010, [5-amino-1-[4-(2-fluorophenoxy)-2-methylphenyl]pyrazol-4-yl]-[5-(difluoromethoxy)-6-[(1-methylsulfonylpiperidin-4-yl)amino]-1H-indol-2-yl]methanone] | 7.2 | 34 | 25
8 | Cc1cc(Oc2ccccc2F)cc(F)c1-n1ncc(C(=O)c2cc3cc(OC(F)F)c(NC4COC4)cc3[nH]2)c1N [Example 4-23-011, [5-amino-1-[2-fluoro-4-(2-fluorophenoxy)-6-methylphenyl]pyrazol-4-yl]-[5-(difluoromethoxy)-6-(oxetan-3-ylamino)-1H-indol-2-yl]methanone] | 7.6 | 63 | 19
9 | Cc1cc(Oc2ccccc2F)cc(F)c1-n1ncc(C(=O)c2cc3cc(OC(F)F)c(NC4CCN(S(C)(=O)=O)CC4)cc3[nH]2)c1N [Example 4-23-012, [5-amino-1-[2-fluoro-4-(2-fluorophenoxy)-6-methylphenyl]pyrazol-4-yl]-[5-(difluoromethoxy)-6-[(1-methylsulfonylpiperidin-4-yl)amino]-1H-indol-2-yl]methanone] | 14 | 70 | 31
10 | Cc1cc(Oc2ccccc2F)ccc1-n1ncc(C(=O)c2cc3cc(OCC(F)F)c(NC4COC4)cc3[nH]2)c1N [Example 4-23-016, [5-amino-1-[4-(2-fluorophenoxy)-2-methylphenyl]pyrazol-4-yl]-[5-(2,2-difluoroethoxy)-6-(oxetan-3-ylamino)-1H-indol-2-yl]methanone] | 0.94 | 21 | 5.4
11 | Cc1cc(Oc2ccccc2F)cc(F)c1-n1ncc(C(=O)c2cc3cc(OCC(F)F)c(NC4COC4)cc3[nH]2)c1N [Example 4-23-019, [5-amino-1-[2-fluoro-4-(2-fluorophenoxy)-6-methylphenyl]pyrazol-4-yl]-[5-(2,2-difluoroethoxy)-6-(oxetan-3-ylamino)-1H-indol-2-yl]methanone] | 1.8 | 28 | 6.4

The remaining lines, values ahead:

Row | IC50 (human Yes1 enzyme) [nM] | IC50 (human Src enzyme) [nM] | IC50 (human Lck enzyme) [nM] | Structure (SMILES)
12 | 1.3 | 16 | 5.5 | Cc1cc(Oc2ccccc2F)ncc1-n1ncc(C(=O)c2cc3cc(OCC(F)F)c(N4CCN(S(C)(=O)=O)CC4)cc3[nH]2)c1N [Example 4-23-007, [5-amino-1-[6-(2-fluorophenoxy)-4-methylpyridin-3-yl]pyrazol-4-yl]-[5-(2,2-difluoroethoxy)-6-(4-methylsulfonylpiperazin-1-yl)-1H-indol-2-yl]methanone]
13 | 3.3 | 23 | 4.6 | Cc1cc(Oc2c(F)cccc2F)ncc1-n1ncc(C(=O)c2cc3cc(OCC(F)F)c(NC4COC4)cc3[nH]2)c1N [Example 4-23-008, {5-amino-1-[6-(2,6-difluorophenoxy)-4-methylpyridin-3-yl]pyrazol-4-yl}-[5-(2,2-difluoroethoxy)-6-(oxetan-3-ylamino)-1H-indol-2-yl]methanone]
14 | 1.6 | 40 | 4.6 | Cc1cc(Oc2ccccc2F)ncc1-n1ncc(C(=O)c2cc3cc(OC(F)F)c(NC4COC4)cc3[nH]2)c1N [Example 4-23-013, [5-amino-1-[6-(2-fluorophenoxy)-4-methylpyridin-3-yl]pyrazol-4-yl]-[5-(difluoromethoxy)-6-(oxetan-3-ylamino)-1H-indol-2-yl]methanone]
15 | 3.5 | 22 | 9.2 | Cc1cc(Oc2c(F)cccc2F)ncc1-n1ncc(C(=O)c2cc3cc(OC(F)F)c(NC4COC4)cc3[nH]2)c1N [Example 4-23-014, [5-amino-1-[6-(2,6-difluorophenoxy)-4-methylpyridin-3-yl]pyrazol-4-yl]-[5-(difluoromethoxy)-6-(oxetan-3-ylamino)-1H-indol-2-yl]methanone]
16 | 5.4 | 49 | 23 | Cc1cc(Oc2c(F)cccc2F)ncc1-n1ncc(C(=O)c2cc3cc(OC(F)F)c(NC4CCN(S(C)(=O)=O)CC4)cc3[nH]2)c1N [Example 4-23-015, [5-amino-1-[6-(2,6-difluorophenoxy)-4-methylpyridin-3-yl]pyrazol-4-yl]-[5-(difluoromethoxy)-6-[(1-methylsulfonylpiperidin-4-yl)amino]-1H-indol-2-yl]methanone]
17 | 5.1 | 28 | 13 | Cc1cc(Oc2ccccc2F)ccc1-n1ncc(C(=O)c2cc3cc(OCC(F)F)c(NC4CCN(S(C)(=O)=O)CC4)cc3[nH]2)c1N [Example 4-23-017, [5-amino-1-[4-(2-fluorophenoxy)-2-methylphenyl]pyrazol-4-yl]-[5-(2,2-difluoroethoxy)-6-[(1-methylsulfonylpiperidin-4-yl)amino]-1H-indol-2-yl]methanone]
18 | 1.4 | 18 | 6.5 | Cc1cc(Oc2ccccc2F)ccc1-n1ncc(C(=O)c2cc3cc(OCC(F)F)c(NC4CN(S(C)(=O)=O)C4)cc3[nH]2)c1N [Example 4-23-018, [5-amino-1-[4-(2-fluorophenoxy)-2-methylphenyl]pyrazol-4-yl]-[5-(2,2-difluoroethoxy)-6-[(1-methylsulfonylazetidin-3-yl)amino]-1H-indol-2-yl]methanone]
19 | 1.4 | 30 | 3.8 | Cc1cc(Oc2ccccc2F)ncc1-n1ncc(C(=O)c2cc3cc(OCC(F)F)c(NC4COC4)cc3[nH]2)c1N [Example 4-23-020, [5-amino-1-[6-(2-fluorophenoxy)-4-methylpyridin-3-yl]pyrazol-4-yl]-[5-(2,2-difluoroethoxy)-6-(oxetan-3-ylamino)-1H-indol-2-yl]methanone]
20 | 3.6 | 21 | 11 | Cc1cc(Oc2c(F)cccc2F)ncc1-n1ncc(C(=O)c2cc3cc(OCC(F)F)c(NC4CCN(S(C)(=O)=O)CC4)cc3[nH]2)c1N [Example 4-23-021, [5-amino-1-[6-(2,6-difluorophenoxy)-4-methylpyridin-3-yl]pyrazol-4-yl]-[5-(2,2-difluoroethoxy)-6-[(1-methylsulfonylpiperidin-4-yl)amino]-1H-indol-2-yl]methanone]
21 | 1.3 | 24 | 8 | Cc1cc(Oc2c(F)cccc2F)ncc1-n1ncc(C(=O)c2cc3cc(OCC(F)F)c(NC4CN(S(C)(=O)=O)C4)cc3[nH]2)c1N [Example 4-23-022, {5-amino-1-[6-(2,6-difluorophenoxy)-4-methylpyridin-3-yl]pyrazol-4-yl}-[5-(2,2-difluoroethoxy)-6-[(1-methylsulfonylazetidin-3-yl)amino]-1H-indol-2-yl]methanone]
